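Exposure lasted 48 hours, with cells grown in 96-well plates and compounds tested at five concentrations. GI50: concentration for 50% inhibition of growth. TGI denotes the concentration required for complete inhibition of growth.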
Experiments:
Assay in all cases: NCI tumour cell line growth inhibition, 48 h; in the data active = GI50 below about 0.43 µM; inactive = the rest
MDA-MB-231 breast = test system: MDA-MB-231 breast
U251 CNS = test system: U251 CNS
SF-295 CNS = test system: SF-295 CNS
HT29 colon = test system: HT29 colon
M14 melanoma = test system: M14 melanoma
K-562 leukemia = test system: K-562 leukemia
DU-145 prostate = test system: DU-145 prostate
ACHN renal = test system: ACHN renal
A549 NSCLC = test system: A549 NSCLC
RXF 393 renal = test system: RXF 393 renal
NCI-H226 lung = test system: NCI-H226 lung
MALME-3M melanoma = test system: MALME-3M melanoma
RPMI-8226 leukemia = test system: RPMI-8226 leukemia
SNB-75 CNS = test system: SNB-75 CNS
SN12C renal = test system: SN12C renal
MCF7 breast = test system: MCF7 breast
KM12 colon = test system: KM12 colon
T-47D breast = test system: T-47D breast
MDA-MB-435 = test system: MDA-MB-435
NCI-H460 lung = test system: NCI-H460 lung
HOP-62 NSCLC = test system: HOP-62 NSCLC
A498 renal = test system: A498 renal
LOX IMVI melanoma = test system: LOX IMVI melanoma
EKVX NSCLC = test system: EKVX NSCLC
NCI-H522 lung = test system: NCI-H522 lung
MOLT-4 leukemia = test system: MOLT-4 leukemia
SK-MEL-5 melanoma = test system: SK-MEL-5 melanoma
SF-268 CNS = test system: SF-268 CNS
HCT-15 colon = test system: HCT-15 colon
HS 578T breast = test system: HS 578T breast
IGROV1 ovarian = test system: IGROV1 ovarian
HOP-92 NSCLC = test system: HOP-92 NSCLC
UACC-62 melanoma = test system: UACC-62 melanoma
OVCAR-8 ovarian = test system: OVCAR-8 ovarian
NCI-H23 lung = test system: NCI-H23 lung
CCRF-CEM leukemia = test system: CCRF-CEM leukemia
TK-10 renal = test system: TK-10 renal
OVCAR-5 ovarian = test system: OVCAR-5 ovarian
HL-60(TB) leukemia = test system: HL-60(TB) leukemia
BT-549 breast = test system: BT-549 breast
PC-3 prostate = test system: PC-3 prostate
OVCAR-4 ovarian = test system: OVCAR-4 ovarian
SW-620 colon = test system: SW-620 colon
UO-31 renal = test system: UO-31 renal
SK-MEL-2 melanoma = test system: SK-MEL-2 melanoma
CAKI-1 renal = test system: CAKI-1 renal
UACC-257 melanoma = test system: UACC-257 melanoma
OVCAR-3 ovarian = test system: OVCAR-3 ovarian
SNB-19 CNS = test system: SNB-19 CNS
SK-OV-3 ovarian = test system: SK-OV-3 ovarian
SK-MEL-28 melanoma = test system: SK-MEL-28 melanoma
SF-539 CNS = test system: SF-539 CNS
HCC-2998 colon = test system: HCC-2998 colon
786-0 renal = test system: 786-0 renal
HCT-116 colon = test system: HCT-116 colon
COLO 205 colon = test system: COLO 205 colon
NCI/ADR-RES ovarian = test system: NCI/ADR-RES ovarian

Cn1c(-c2nonc2N)nc2cnccc21
> 25 µM: TGI (MDA-MB-231 breast) | TGI (U251 CNS) | TGI (SF-295 CNS) | TGI (HT29 colon) | TGI (M14 melanoma) | TGI (K-562 leukemia) | TGI (DU-145 prostate) | TGI (ACHN renal) | TGI (A549 NSCLC) | TGI (RXF 393 renal) | TGI (NCI-H226 lung) | TGI (MALME-3M melanoma) | TGI (RPMI-8226 leukemia) | TGI (SN12C renal) | TGI (MCF7 breast) | TGI (KM12 colon) | TGI (T-47D breast) | TGI (MDA-MB-435) | TGI (NCI-H460 lung) | TGI (HOP-62 NSCLC) | TGI (A498 renal) | TGI (LOX IMVI melanoma) | TGI (EKVX NSCLC) | TGI (NCI-H522 lung) | TGI (MOLT-4 leukemia) | TGI (SK-MEL-5 melanoma) | TGI (SF-268 CNS) | TGI (HCT-15 colon) | TGI (HS 578T breast) | TGI (IGROV1 ovarian) | TGI (HOP-92 NSCLC) | TGI (UACC-62 melanoma) | TGI (OVCAR-8 ovarian) | TGI (NCI-H23 lung) | TGI (CCRF-CEM leukemia) | TGI (TK-10 renal) | TGI (OVCAR-5 ovarian) | TGI (HL-60(TB) leukemia) | TGI (BT-549 breast) | TGI (PC-3 prostate) | TGI (OVCAR-4 ovarian) | TGI (SW-620 colon) | TGI (UO-31 renal) | TGI (SK-MEL-2 melanoma) | TGI (CAKI-1 renal) | TGI (UACC-257 melanoma) | TGI (OVCAR-3 ovarian) | TGI (SNB-19 CNS) | TGI (SK-OV-3 ovarian) | TGI (SK-MEL-28 melanoma) | TGI (SF-539 CNS) | TGI (HCC-2998 colon) | TGI (786-0 renal) | TGI (HCT-116 colon) | TGI (COLO 205 colon) | TGI (NCI/ADR-RES ovarian)
inactive: GI50 (MDA-MB-231 breast) > 25 µM | GI50 (U251 CNS) > 25 µM | GI50 (SF-295 CNS) > 25 µM | GI50 (HT29 colon) > 25 µM | GI50 (M14 melanoma) > 25 µM | GI50 (K-562 leukemia) > 25 µM | GI50 (DU-145 prostate) > 25 µM | GI50 (ACHN renal) > 25 µM | GI50 (A549 NSCLC) > 25 µM | GI50 (RXF 393 renal) > 20.6 µM | GI50 (NCI-H226 lung) > 25 µM | GI50 (MALME-3M melanoma) > 25 µM | GI50 (RPMI-8226 leukemia) > 25 µM | GI50 (SNB-75 CNS) > 12.8 µM | GI50 (SN12C renal) > 25 µM | GI50 (MCF7 breast) > 25 µM | GI50 (KM12 colon) > 25 µM | GI50 (T-47D breast) > 25 µM | GI50 (MDA-MB-435) > 25 µM | GI50 (NCI-H460 lung) > 25 µM | GI50 (HOP-62 NSCLC) > 25 µM | GI50 (A498 renal) 16 µM | GI50 (LOX IMVI melanoma) > 25 µM | GI50 (EKVX NSCLC) 16.5 µM | GI50 (NCI-H522 lung) > 25 µM | GI50 (MOLT-4 leukemia) > 25 µM | GI50 (SK-MEL-5 melanoma) > 25 µM | GI50 (SF-268 CNS) > 25 µM | GI50 (HCT-15 colon) > 25 µM | GI50 (HS 578T breast) 14.9 µM | GI50 (IGROV1 ovarian) > 25 µM | GI50 (HOP-92 NSCLC) 8.73 µM | GI50 (UACC-62 melanoma) > 25 µM | GI50 (OVCAR-8 ovarian) > 25 µM | GI50 (NCI-H23 lung) > 25 µM | GI50 (CCRF-CEM leukemia) > 25 µM | GI50 (TK-10 renal) 11.3 µM | GI50 (OVCAR-5 ovarian) > 25 µM | GI50 (HL-60(TB) leukemia) > 25 µM | GI50 (BT-549 breast) 17.6 µM | GI50 (PC-3 prostate) > 25 µM | GI50 (OVCAR-4 ovarian) > 25 µM | GI50 (SW-620 colon) > 25 µM | GI50 (UO-31 renal) > 17.8 µM | GI50 (SK-MEL-2 melanoma) > 25 µM | GI50 (CAKI-1 renal) 13.7 µM | GI50 (UACC-257 melanoma) > 25 µM | GI50 (OVCAR-3 ovarian) > 25 µM | GI50 (SNB-19 CNS) > 25 µM | GI50 (SK-OV-3 ovarian) > 25 µM | GI50 (SK-MEL-28 melanoma) > 25 µM | GI50 (SF-539 CNS) 12.2 µM | GI50 (HCC-2998 colon) > 25 µM | GI50 (786-0 renal) > 25 µM | GI50 (HCT-116 colon) > 25 µM | GI50 (COLO 205 colon) > 25 µM | GI50 (NCI/ADR-RES ovarian) > 25 µM
> 24 µM: TGI (SNB-75 CNS)

From PubChem BioAssay (NCI)
